Values after ≈ are worked out from the molar mass of the structure shown. Like-named read-outs stand apart in the source and are kept apart here.
Key:
[1] = cited from earlier work
[2] = Solvent solubility screen; format: physicochemical; conditions: thermodynamic from solid
[3] = pKa determination (UV-metric); format: physicochemical; conditions: 0.15 M KCl
[4] = logP determination (pH-metric); format: physicochemical; conditions: 24.9-25.0 °C, 0.15M KCl

For `NCCCC[C@H](N)C(=O)O.O=C(O)c1cc(/N=N/c2ccc(S(=O)(=O)Nc3ccccn3)cc2)ccc1O` [L-Lysine Salt, sulfasalazine L-lysine (1:1) salt], the “Post-agitation pH” value (pH 1) was 1.91, the “Pre-agitation pH” value (pH 1) was 0.76 and the “Post-agitation pH” value (pH 4.5) was 5.63. The “Pre-agitation pH” value (pH 4.5) was 4.70, the “Post-agitation pH” value (pH 6.8) was 7.17 and the “Pre-agitation pH” value (pH 6.8) was 6.99.
For `Nc1ccc(S(=O)(=O)Nc2ccccn2)cc1` [Sulfapyridine, sulfapyridine], the allergic reactions ([1]; of recipients) is listed as 3-8%.
In the case of `O=C(O)c1cc(/N=N/c2ccc(S(=O)(=O)Nc3ccccn3)cc2)ccc1O` [Sulfasalazine], the solubility (physchem; acetone, organic solvent or mixture) is reported as 1100 µg/mL (≈ 2.76 mM), the solubility (physchem; acetonitrile, organic solvent or mixture) is reported as 300 µg/mL (≈ 0.753 mM) and the solubility (physchem; ethanol, organic solvent or mixture) is reported as 500 µg/mL (≈ 1.26 mM). It also gave a solubility (physchem; ethyl acetate, organic solvent or mixture) of 400 µg/mL (≈ 1 mM), a solubility (physchem; isopropyl alcohol, organic solvent or mixture) of 500 µg/mL (≈ 1.26 mM) and a solubility (physchem; methanol, organic solvent or mixture) of 900 µg/mL (≈ 2.26 mM). The solubility (physchem; methyl ethyl ketone, organic solvent or mixture) was 900 µg/mL (≈ 2.26 mM), the solubility (physchem; methyl tert-butyl ether, organic solvent or mixture) was 300 µg/mL (≈ 0.753 mM) and the solubility (physchem; water) was 400 µg/mL (≈ 1 mM). For the same molecule, the “Significant side effects occur in” value ([1]; of people) was “about 25%”, the solubility ([2]; 1,4-dioxane, 40 °C, organic solvent or mixture, 1,4-Dixoane, read-out: Approx. Solubility) was less than 5000 µg/mL and the solubility ([2]; 1-butanol, 40 °C, organic solvent or mixture, read-out: Approx. Solubility) was less than 5000 µg/mL. For the same molecule, the solubility ([2]; 1-propanol, 40 °C, organic solvent or mixture, read-out: Approx. Solubility) was less than 5000 µg/mL, the solubility ([2]; 2-propanol, 40 °C, organic solvent or mixture, read-out: Approx. Solubility) was less than 5000 µg/mL and the solubility ([2]; 2-propanol/water (50:50), 40 °C, aqueous with cosolvent or surfactant or cyclodextrin, read-out: Approx. Solubility) was less than 5000 µg/mL. The solubility ([2]; 40 °C, organic solvent or mixture, all solvents of the 24-solvent screen except DMF and THF, read-out: solubility values) was less than 5000 µg/mL, the solubility ([2]; acetone, 40 °C, organic solvent or mixture, read-out: Approx. Solubility) was less than 5000 µg/mL and the solubility ([2]; acetone/water (50:50), 40 °C, aqueous with cosolvent or surfactant or cyclodextrin, read-out: Approx. Solubility) was less than 5000 µg/mL. For the same molecule, the solubility ([2]; acetonitrile, 40 °C, organic solvent or mixture, read-out: Approx. Solubility) was less than 5000 µg/mL, the solubility ([2]; acetonitrile/water (50:50), 40 °C, aqueous with cosolvent or surfactant or cyclodextrin, read-out: Approx. Solubility) was less than 5000 µg/mL and the solubility ([2]; dichloromethane, 40 °C, organic solvent or mixture, read-out: Approx. Solubility) was less than 5000 µg/mL. It also gave a solubility ([2]; dimethylformamide, organic solvent or mixture, read-out: Approx. Solubility) greater than 100000 µg/mL, a solubility ([2]; ethanol, 40 °C, organic solvent or mixture, read-out: Approx. Solubility) of less than 5000 µg/mL and a solubility ([2]; ethyl acetate, 40 °C, organic solvent or mixture, read-out: Approx. Solubility) of less than 5000 µg/mL. The solubility ([2]; ethyl formate, 40 °C, organic solvent or mixture, read-out: Approx. Solubility) was less than 5000 µg/mL, the solubility ([2]; heptane, 40 °C, organic solvent or mixture, Hepatane, read-out: Approx. Solubility) was less than 5000 µg/mL and the solubility ([2]; isobutyl acetate, 40 °C, organic solvent or mixture, read-out: Approx. Solubility) was less than 5000 µg/mL. For the same molecule, the solubility ([2]; isopropyl acetate, 40 °C, organic solvent or mixture, read-out: Approx. Solubility) was less than 5000 µg/mL, the solubility ([2]; methanol, 40 °C, organic solvent or mixture, read-out: Approx. Solubility) was less than 5000 µg/mL and the solubility ([2]; methanol/water (50:50), 40 °C, aqueous with cosolvent or surfactant or cyclodextrin, read-out: Approx. Solubility) was less than 5000 µg/mL. For the same molecule, the solubility ([2]; methyl ethyl ketone, 40 °C, organic solvent or mixture, Methylethyl Ketone, read-out: Approx. Solubility) was less than 5000 µg/mL, the solubility ([2]; nitromethane, 40 °C, organic solvent or mixture, read-out: Approx. Solubility) was less than 5000 µg/mL and the solubility ([2]; tetrahydrofuran, organic solvent or mixture, read-out: Approx. Solubility) was 10000 µg/mL (≈ 25.1 mM). The solubility ([2]; toluene, 40 °C, organic solvent or mixture, read-out: Approx. Solubility) was less than 5000 µg/mL, the solubility ([2]; water, 40 °C, water, read-out: Approx. Solubility) was less than 5000 µg/mL and the “Thermodynamic solubility, Concentration” value (pH 1) was “Less than the limit”. For the same molecule, the “Thermodynamic solubility, Concentration” value (pH 4.5) was “Less than the limit”, the “Thermodynamic solubility, Concentration” value (pH 6.8) was “Less than the limit” and the pKa ([3]; Type Acid (first acidic group), 25.0 °C) was 2.29. The pKa ([3]; Type Acid (second acidic group), 25.0-25.1 °C) was 11, the pKa ([3]; Type Base (pyridine), 25.0-25.1 °C) was roughly 8.05 and the LogP ([4]; Cationic species) was 3.73 ± 0.01. It also gave a LogP ([4]; Zwitterionic species) of 0.02 ± 0.03.

Reference: patent US20200392084A1 (priority 2017, published 2020)
